# Assay results: PubChem BioAssay (NCI)
#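 In this assay, cells in 96-well plates receive the compound at five concentrations for 48 hours. Endpoints are linearly interpolated between the surrounding concentrations. TGI marks complete inhibition of growth.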
# Experiments:
# Assay in all cases: NCI tumour cell line growth inhibition, 48 h
# DU-145 prostate = test system: DU-145 prostate
# HCT-116 colon = test system: HCT-116 colon
# PC-3 prostate = test system: PC-3 prostate
# UACC-62 melanoma = test system: UACC-62 melanoma
# ACHN renal = test system: ACHN renal
# UO-31 renal = test system: UO-31 renal
# NCI-H460 lung = test system: NCI-H460 lung
# SF-295 CNS = test system: SF-295 CNS
# OVCAR-3 ovarian = test system: OVCAR-3 ovarian
# COLO 205 colon = test system: COLO 205 colon
# HOP-62 NSCLC = test system: HOP-62 NSCLC
# A549 NSCLC = test system: A549 NSCLC
# HS 578T breast = test system: HS 578T breast
# HT29 colon = test system: HT29 colon
# NCI-H226 lung = test system: NCI-H226 lung
# HOP-92 NSCLC = test system: HOP-92 NSCLC
# IGROV1 ovarian = test system: IGROV1 ovarian
# HCT-15 colon = test system: HCT-15 colon
# EKVX NSCLC = test system: EKVX NSCLC
# HCC-2998 colon = test system: HCC-2998 colon
# SN12C renal = test system: SN12C renal
# KM12 colon = test system: KM12 colon
# MDA-N = test system: MDA-N
# UACC-257 melanoma = test system: UACC-257 melanoma
# CAKI-1 renal = test system: CAKI-1 renal
# SW-620 colon = test system: SW-620 colon
# SNB-19 CNS = test system: SNB-19 CNS
# M14 melanoma = test system: M14 melanoma
# SK-MEL-5 melanoma = test system: SK-MEL-5 melanoma
# NCI-H23 lung = test system: NCI-H23 lung
# 786-0 renal = test system: 786-0 renal
# NCI/ADR-RES ovarian = test system: NCI/ADR-RES ovarian
# CCRF-CEM leukemia = test system: CCRF-CEM leukemia
# A498 renal = test system: A498 renal
# OVCAR-4 ovarian = test system: OVCAR-4 ovarian
# SK-MEL-28 melanoma = test system: SK-MEL-28 melanoma
# SF-268 CNS = test system: SF-268 CNS
# LOX IMVI melanoma = test system: LOX IMVI melanoma
# SK-OV-3 ovarian = test system: SK-OV-3 ovarian
# SR leukemia = test system: SR leukemia
# MDA-MB-231 breast = test system: MDA-MB-231 breast
# NCI-H522 lung = test system: NCI-H522 lung
# U251 CNS = test system: U251 CNS
# TK-10 renal = test system: TK-10 renal
# HL-60(TB) leukemia = test system: HL-60(TB) leukemia
# MALME-3M melanoma = test system: MALME-3M melanoma
# K-562 leukemia = test system: K-562 leukemia
# MCF7 breast = test system: MCF7 breast
# BT-549 breast = test system: BT-549 breast
# RPMI-8226 leukemia = test system: RPMI-8226 leukemia
# OVCAR-5 ovarian = test system: OVCAR-5 ovarian
# SK-MEL-2 melanoma = test system: SK-MEL-2 melanoma
# MDA-MB-435 = test system: MDA-MB-435
# RXF 393 renal = test system: RXF 393 renal
# SNB-75 CNS = test system: SNB-75 CNS
# OVCAR-8 ovarian = test system: OVCAR-8 ovarian
# SF-539 CNS = test system: SF-539 CNS
compound,measurement,setting,value
CN(CCCNC(=O)c1cn(C)c2c1ccc1ccccc12)CCCNC(=O)c1cn(C)c2c1ccc1ccccc12,TGI,DU-145 prostate,3.08 µM
same,TGI,HCT-116 colon,3.12 µM
same,TGI,PC-3 prostate,2.83 µM
same,TGI,UACC-62 melanoma,4.68 µM
same,TGI,ACHN renal,3.33 µM
same,TGI,UO-31 renal,2.75 µM
same,TGI,NCI-H460 lung,2.83 µM
same,TGI,SF-295 CNS,16.8 µM
same,TGI,OVCAR-3 ovarian,2.84 µM
same,TGI,COLO 205 colon,5.07 µM
same,TGI,HOP-62 NSCLC,2.95 µM
same,TGI,A549 NSCLC,2.62 µM
same,TGI,HS 578T breast,3.19 µM
same,TGI,HT29 colon,2.89 µM
same,TGI,NCI-H226 lung,12 µM
same,TGI,HOP-92 NSCLC,3.57 µM
same,TGI,IGROV1 ovarian,2.31 µM
same,TGI,HCT-15 colon,3.38 µM
same,TGI,EKVX NSCLC,3.42 µM
same,TGI,HCC-2998 colon,2.7 µM
same,TGI,SN12C renal,2.71 µM
same,TGI,KM12 colon,2.96 µM
same,TGI,MDA-N,2.76 µM
same,TGI,UACC-257 melanoma,3.06 µM
same,TGI,CAKI-1 renal,2.87 µM
same,TGI,SW-620 colon,6.41 µM
same,TGI,SNB-19 CNS,5.65 µM
same,TGI,M14 melanoma,2.92 µM
same,TGI,SK-MEL-5 melanoma,3.33 µM
same,TGI,NCI-H23 lung,2.95 µM
same,TGI,786-0 renal,4.5 µM
same,TGI,NCI/ADR-RES ovarian,3.34 µM
same,TGI,CCRF-CEM leukemia,> 100 µM
same,TGI,A498 renal,47.9 µM
same,TGI,OVCAR-4 ovarian,27.3 µM
same,TGI,SK-MEL-28 melanoma,3.67 µM
same,TGI,SF-268 CNS,3.05 µM
Nc1nc(N)c2c(-c3ccccc3)ccnc2n1,TGI,LOX IMVI melanoma,> 100 µM
same,TGI,DU-145 prostate,> 100 µM
same,TGI,HCT-116 colon,> 100 µM
same,TGI,PC-3 prostate,> 100 µM
same,TGI,UACC-62 melanoma,> 100 µM
same,TGI,ACHN renal,> 100 µM
same,TGI,UO-31 renal,> 100 µM
same,TGI,NCI-H460 lung,> 100 µM
same,TGI,SF-295 CNS,> 100 µM
same,TGI,OVCAR-3 ovarian,> 100 µM
same,TGI,COLO 205 colon,> 100 µM
same,TGI,HOP-62 NSCLC,> 100 µM
same,TGI,SK-OV-3 ovarian,> 100 µM
same,TGI,SR leukemia,> 100 µM
same,TGI,MDA-MB-231 breast,> 100 µM
same,TGI,NCI-H522 lung,> 100 µM
same,TGI,U251 CNS,> 100 µM
same,TGI,TK-10 renal,> 100 µM
same,TGI,HT29 colon,> 100 µM
same,TGI,HL-60(TB) leukemia,> 100 µM
same,TGI,MALME-3M melanoma,> 100 µM
same,TGI,K-562 leukemia,> 100 µM
same,TGI,MCF7 breast,> 100 µM
same,TGI,NCI-H226 lung,> 100 µM
same,TGI,HOP-92 NSCLC,> 100 µM
same,TGI,IGROV1 ovarian,> 100 µM
same,TGI,EKVX NSCLC,> 100 µM
same,TGI,HCC-2998 colon,> 100 µM
same,TGI,BT-549 breast,> 100 µM
same,TGI,SN12C renal,> 100 µM
same,TGI,MDA-N,> 100 µM
same,TGI,RPMI-8226 leukemia,> 100 µM
same,TGI,OVCAR-5 ovarian,> 100 µM
same,TGI,UACC-257 melanoma,> 100 µM
same,TGI,SK-MEL-2 melanoma,> 100 µM
same,TGI,CAKI-1 renal,> 100 µM
same,TGI,SW-620 colon,> 100 µM
same,TGI,SNB-19 CNS,> 100 µM
same,TGI,MDA-MB-435,> 100 µM
same,TGI,SK-MEL-5 melanoma,> 100 µM
same,TGI,NCI-H23 lung,> 100 µM
same,TGI,786-0 renal,> 100 µM
same,TGI,RXF 393 renal,> 100 µM
same,TGI,CCRF-CEM leukemia,> 100 µM
same,TGI,A498 renal,> 100 µM
same,TGI,OVCAR-4 ovarian,> 100 µM
same,TGI,SK-MEL-28 melanoma,> 100 µM
same,TGI,SF-268 CNS,> 100 µM
O=C1Nc2n[nH]c(=S)n2NC12c1ccccc1-c1ccccc12,TGI,LOX IMVI melanoma,> 100 µM
same,TGI,DU-145 prostate,> 100 µM
same,TGI,HCT-116 colon,93.6 µM
same,TGI,PC-3 prostate,> 100 µM
same,TGI,UACC-62 melanoma,68.1 µM
same,TGI,ACHN renal,> 100 µM
same,TGI,UO-31 renal,> 100 µM
same,TGI,NCI-H460 lung,> 100 µM
same,TGI,SF-295 CNS,> 100 µM
same,TGI,OVCAR-3 ovarian,> 100 µM
same,TGI,COLO 205 colon,> 100 µM
same,TGI,SNB-75 CNS,> 100 µM
same,TGI,HOP-62 NSCLC,> 100 µM
same,TGI,SK-OV-3 ovarian,> 100 µM
same,TGI,A549 NSCLC,> 100 µM
same,TGI,OVCAR-8 ovarian,> 100 µM
same,TGI,SR leukemia,> 100 µM
same,TGI,MDA-MB-231 breast,> 100 µM
same,TGI,NCI-H522 lung,> 100 µM
same,TGI,HS 578T breast,> 100 µM
same,TGI,U251 CNS,> 100 µM
same,TGI,TK-10 renal,> 100 µM
same,TGI,HT29 colon,> 100 µM
same,TGI,HL-60(TB) leukemia,> 100 µM
same,TGI,MALME-3M melanoma,> 100 µM
same,TGI,MCF7 breast,> 100 µM
same,TGI,NCI-H226 lung,> 100 µM
same,TGI,HOP-92 NSCLC,> 100 µM
same,TGI,IGROV1 ovarian,> 100 µM
same,TGI,HCT-15 colon,> 100 µM
same,TGI,EKVX NSCLC,> 100 µM
same,TGI,HCC-2998 colon,> 100 µM
same,TGI,BT-549 breast,> 100 µM
same,TGI,SN12C renal,> 100 µM
same,TGI,SF-539 CNS,> 100 µM
same,TGI,MDA-N,> 100 µM
same,TGI,OVCAR-5 ovarian,> 100 µM
same,TGI,UACC-257 melanoma,48.4 µM
same,TGI,SK-MEL-2 melanoma,> 100 µM
same,TGI,CAKI-1 renal,> 100 µM
same,TGI,SW-620 colon,> 100 µM
same,TGI,SNB-19 CNS,> 100 µM
same,TGI,MDA-MB-435,37.4 µM
same,TGI,M14 melanoma,> 100 µM
same,TGI,SK-MEL-5 melanoma,> 100 µM
same,TGI,NCI-H23 lung,> 100 µM
same,TGI,786-0 renal,> 100 µM
same,TGI,NCI/ADR-RES ovarian,> 100 µM
same,TGI,RXF 393 renal,> 100 µM
same,TGI,A498 renal,> 100 µM
same,TGI,OVCAR-4 ovarian,39.1 µM
same,TGI,SK-MEL-28 melanoma,> 100 µM
same,TGI,SF-268 CNS,> 100 µM
